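Method: 48-hour compound exposure of cells in 96-well plates, five concentrations, linear interpolation of endpoints. GI50 marks 50% less growth. TGI is the concentration that stops growth completely.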
Legend:
Experiment in all cases: DTP human tumour cell line panel, 48 h; in the data active means GI50 below about 0.43 µM; inactive means the rest
[1] = system: KM12 colon
[2] = system: SNB-19 CNS
[3] = system: DU-145 prostate
[4] = system: MOLT-4 leukemia
[5] = system: A498 renal
[6] = system: HS 578T breast
[7] = system: MDA-MB-435
[8] = system: HOP-92 NSCLC
[9] = system: K-562 leukemia
[10] = system: SK-OV-3 ovarian
[11] = system: MDA-MB-231 breast
[12] = system: IGROV1 ovarian
[13] = system: HOP-62 NSCLC
[14] = system: SR leukemia
[15] = system: SF-268 CNS
[16] = system: OVCAR-5 ovarian
[17] = system: HL-60(TB) leukemia
[18] = system: SW-620 colon
[19] = system: NCI-H522 lung
[20] = system: LOX IMVI melanoma
[21] = system: HT29 colon
[22] = system: UACC-257 melanoma
[23] = system: BT-549 breast
[24] = system: SK-MEL-2 melanoma
[25] = system: U251 CNS
[26] = system: TK-10 renal
[27] = system: CCRF-CEM leukemia
[28] = system: NCI-H226 lung
[29] = system: SK-MEL-5 melanoma
[30] = system: MCF7 breast
[31] = system: UO-31 renal
[32] = system: NCI-H460 lung
[33] = system: OVCAR-8 ovarian
[34] = system: SN12C renal
[35] = system: SF-295 CNS
[36] = system: RXF 393 renal
[37] = system: SF-539 CNS
[38] = system: SNB-75 CNS
[39] = system: SK-MEL-28 melanoma
[40] = system: RPMI-8226 leukemia
[41] = system: OVCAR-3 ovarian
[42] = system: ACHN renal
[43] = system: OVCAR-4 ovarian
[44] = system: T-47D breast
[45] = system: NCI/ADR-RES ovarian
[46] = system: PC-3 prostate
[47] = system: HCT-15 colon
[48] = system: HCC-2998 colon
[49] = system: A549 NSCLC
[50] = system: HCT-116 colon
[51] = system: CAKI-1 renal
[52] = system: UACC-62 melanoma
[53] = system: 786-0 renal
[54] = system: COLO 205 colon
[55] = system: EKVX NSCLC
[56] = system: M14 melanoma

Nc1nc(/C=C\c2ccc([N+](=O)[O-])cc2)nc(N2CCN(c3ccccc3)CC2)n1
45.8 µM: TGI [51]
inactive: GI50 [1] 20.7 µM | GI50 [2] > 100 µM | GI50 [3] 40 µM | GI50 [4] 27.4 µM | GI50 [5] 37.6 µM | GI50 [6] 80 µM | GI50 [7] 20.5 µM | GI50 [8] 44.2 µM | GI50 [9] 26.5 µM | GI50 [10] 28.7 µM | GI50 [11] 20.8 µM | GI50 [12] 20.1 µM | GI50 [13] 36.2 µM | GI50 [14] 21.3 µM | GI50 [15] 96.7 µM | GI50 [16] 89 µM | GI50 [17] 20 µM | GI50 [18] 40.4 µM | GI50 [19] 18.4 µM | GI50 [20] 30.2 µM | GI50 [21] 35.3 µM | GI50 [22] 25.1 µM | GI50 [23] 35.7 µM | GI50 [24] 30.2 µM | GI50 [25] 38.2 µM | GI50 [26] 20.5 µM | GI50 [27] 23.2 µM | GI50 [28] 40.8 µM | GI50 [29] 18.2 µM | GI50 [30] 34.2 µM | GI50 [31] 27.7 µM | GI50 [32] 35.5 µM | GI50 [33] 29.7 µM | GI50 [34] 42.3 µM | GI50 [35] 38.4 µM | GI50 [36] 29.3 µM | GI50 [37] > 100 µM | GI50 [38] 39.8 µM | GI50 [39] 41.7 µM | GI50 [40] 22.9 µM | GI50 [41] 26.9 µM | GI50 [42] 30.2 µM | GI50 [43] 53.3 µM | GI50 [44] 23.1 µM | GI50 [45] 25.3 µM | GI50 [46] 23.7 µM | GI50 [47] 25.3 µM | GI50 [48] 41 µM | GI50 [49] 38.2 µM | GI50 [50] 24.8 µM | GI50 [51] 22.5 µM | GI50 [52] 18.9 µM | GI50 [53] 45.8 µM | GI50 [54] 19 µM | GI50 [55] 43.4 µM | GI50 [56] 25.6 µM
50.5 µM: TGI [19]
81.3 µM: TGI [24]
69.6 µM: TGI [41]
77.3 µM: TGI [45]
61.5 µM: TGI [22]
96.2 µM: TGI [48]
74.6 µM: TGI [27]
54.1 µM: TGI [12]
79.6 µM: TGI [9]
41.7 µM: TGI [7]
93 µM: TGI [36]
62.9 µM: TGI [56]
61 µM: TGI [44]
77 µM: TGI [10]
60.2 µM: TGI [14]
> 100 µM: TGI [2] | TGI [3] | TGI [4] | TGI [5] | TGI [6] | TGI [8] | TGI [13] | TGI [15] | TGI [16] | TGI [18] | TGI [20] | TGI [21] | TGI [23] | TGI [25] | TGI [28] | TGI [30] | TGI [31] | TGI [32] | TGI [33] | TGI [34] | TGI [35] | TGI [37] | TGI [38] | TGI [39] | TGI [40] | TGI [42] | TGI [43] | TGI [47] | TGI [49] | TGI [50] | TGI [53] | TGI [55]
43.6 µM: TGI [52]
33.1 µM: TGI [29]
65 µM: TGI [26]
53.8 µM: TGI [1]
58.9 µM: TGI [17]
55.2 µM: TGI [54]
58.1 µM: TGI [11]
67.6 µM: TGI [46]
